The values below come from patent US20130123287A1, “CONTROL AGENT FOR SOFT ROT AND CONTROL METHOD FOR THE SAME” (ISHIHARA SANGYO KAISHA, LTD., priority 2010, published 2013).

Test [1] concerns soft rot of Chinese cabbage. The test can be described thus: Test for controlling soft rot of Chinese cabbage, Example 2 / Comparative Example 2 (field, cultivar Harebutai 65). The class given is in vivo. Particulars: 1/1000 dilution, 300 L/10a sprayed twice on stems and leaves, 64 days after start. From the text:
Frequency of the disease=[sigma(number of plants with the onset of the disease at each severity level*index of the onset of the disease)/(plants examined*4)]*100
Disease control value=[1-(frequency of the disease in the treated lot/frequency of the disease in the non-treated lot)]*100
• 0: No onset • 1: Onset in some of outer leaves (shippable) • 2: Onset in outer leaves and some of head leaves (by removing damaged parts, the resulting cabbage can be shipped as small cabbage but is ranked as grade B). • 3: Most of head leaves are inflicted with the onset of the disease or with severer damages (not shippable) • 4: Whole cabbage plant is inflicted with the onset of the disease and is dead.
200 g/l Azoxystrobin (Amistar 20 FLOWABLE [trade name], manufactured by Syngenta Japan K.K.) was adjusted to 500 g ai/10a (0.5 g/m^2, 2500 ml Product/10a) as the amount of the active ingredient and to 150 L/10a as the volume of diluent water.
30% w/w triflumizol (TRIFUMIN WP [trade name], manufactured by Nippon Soda Co., Ltd.) was adjusted to 500 g ai/10a (0.5 g/m^2, 1667 g Product/10a) as the amount of the active ingredient and to 150 L/10a as the volume of diluent water.
100 g/1 cyazofamid (RANMAN PLOWABLE [trade name], manufactured by Ishihara Sangyo Kaisha, Ltd.) was adjusted to 500 g ai/10a (0.5 g/m^2, 5000 ml Product/10a) as the amount of the active ingredient and to 150 L/10a as the volume of diluent water.
50% w/w penthiopyrad (GAIA WG [trade name], manufactured by Mitsui Chemicals Agro, Inc.) was adjusted to 500 g ai/10a (0.5 g/m^2, 1000 g Product/10a) as the amount of the active ingredient and to 150 L/10a as the volume of diluent water.
50 g/l flusulfamide (SCABLOCK SC [trade name], manufactured by Mitsui Chemicals Agro, Inc.) was adjusted to 500 g ai/10a (0.5 g/m^2, 10000 ml Product/10a) as the amount of the active ingredient and to 150 L/10a as the volume of diluent water.
400 g/1 chlorothalonil (Daconil 1000 [the trade name], manufactured by Sumitomo Chemical, Limited) was adjusted to 1000 g ai/10a (1.0 g/m^2, 2500 ml Product/10a) as the amount of the active ingredient and to 150 L/10a as the volume of diluent water.
After spreading an agricultural mulch-sheet and opening planting holes (diameter of about 5 cm) for permanent planting through the mulch-sheet, the spray solutions prepared as described above were sprayed onto the planting holes such that the amount of treated active ingredient of chlorothalonil was 1.0 g/m^2 (150 L per 10a) and the amount of each of the remaining spray solutions was 0.5 g/m^2 (150 L per 10a), followed by air-drying; subsequently, seedlings of Chinese cabbage (cultivar Harebutai 65) grown for 4 weeks in cell mold trays (128 holes/nursery box) were planted such that 19 seedlings were planted in each test lot having an area of 2.4 m^2 with two replications.
Preparation was performed by diluting streptomycin (Mycin 20 wettable powder solution [under the trade name] manufactured by Hokko Chemical Industry Co., Ltd.) with water to 1/1000.
In a field spread with the agricultural mulch-sheet, Chinese cabbage seedlings (cultivar: Harebutai 65) grown by the same method as in Example 2 were planted by the same method as in Example 2, for spraying the spray solution of streptomycin prepared above in (1) (at each spray volume of 300 L/10a) twice (27 days and 48 days after the planting of the seedlings) on the stems and leaves with a sprayer.
64 days after the start of the tests, all the plants in each lot were examined about the severity level of the disease to assess the frequency of the disease and the disease control value. In the same manner as described above, the frequency of the disease and the disease control value were determined. Additionally, soft rot is a disease with damages hardly controlled, so even a chemical at the level C determined by the tests of the effects can practically be used.

Test [2] deals with bacteria causing the soft rot (Erwinia carotovora). The test can be described thus: Inhibition test of growth of bacteria causing soft rot, Reference Test Example 1. The class given is cell-based. Particulars: for formed colonies (growth state), grade: PSA medium, 25 degrees Celsius, 4 days. As for the experimental part: An inhibition test of the growth of bacteria causing the soft rot was done, when a control agent was directly applied to the bacteria causing the soft rot. A given volume of each pesticide of cyazofamid (RANMAN 400SC [trade name] manufactured by Ishihara Sangyo Kaisha, Ltd.), amisulbrom (LEIMAY FLOWABLE [trade name], manufactured by Nissan Chemical Industries, Ltd.) and streptomycin (Mycin Wettable powder [trade name] manufactured by Hokko Chemical Industry Co., Ltd.) was added together with a suspension of the bacteria causing the soft rot (Erwinia carotovora) to a preliminarily dissolved PSA culture medium (55 degrees Celsius) for subsequent thorough agitation, which was then spread on a plate for culturing at 25 degrees Celsius for 4 days, to examine the growth state. Subsequently, the formed colonies were examined according to the following three grades. • +: at the same level as the level of non-treated lot.
Plus or minus: apparently less than the colonies of the non-treated lot. • −: almost no colonies observed.

The test system is the same in test [3]. As to the kind of experiment: Inhibition test of growth of bacteria causing soft rot, Reference Test Example 4. The format is cell-based. Particulars: for formed colonies (growth state), grade: PSA medium, 27 degrees Celsius, 2 days. From the text: An inhibition test of the growth of bacteria causing the soft rot was done, when a control agent was directly applied to the bacteria causing the soft rot. A given volume of each pesticide of kresoxim-methyl (STROBY DF [trade name] manufactured by BASF), thiophanate methyl (Topsin M WP [trade name], manufactured by Nippon Soda Co., Ltd), boscalid (Cantus DF [trade name] manufactured by BASF), procymidone (Sumilex WP [trade name] manufactured by Sumitomo Chemical Agro Co., Ltd.) and streptomycin (Mycin Wettable powder [trade name] manufactured by Hokko Chemical Industry Co., Ltd.) was added together with a suspension of the bacteria causing the soft rot (Erwinia carotovora) to a preliminarily dissolved PSA culture medium (55 degrees Celsius) for subsequent thorough agitation, which was then spread on a plate for culturing at 27 degrees Celsius for 2 days, to examine the growth state. Subsequently, the formed colonies were examined according to the following three grades. • +: at the same level as the level of non-treated lot. Plus or minus: apparently less than the colonies of the non-treated lot. • −: almost no colonies observed.

Where [4] appears, read: active ingredient concentration of 1 ppm.

In the case of `[H]/N=C(/N)N[C@H]1[C@H](O)[C@@H](O)[C@H](O[C@@H]2O[C@@H](C)[C@](O)(C=O)[C@H]2O[C@@H]2O[C@@H](CO)[C@H](O)[C@@H](O)[C@@H]2NC)[C@@H](N/C(N)=N\[H])[C@@H]1O` [Streptomycin], the Determination of effect entry in test [1] is listed as “B (B: Effective (41 to 60 disease control value))”. Also, the “formed colonies (growth state), grade” value in test [2] (1 ppm active ingredient) was “−, −”; in test [2] (10 ppm active ingredient) it was “−, −”; in test [3] (1 ppm active ingredient) it was “−, −”; in test [3] (10 ppm active ingredient), “−, −”. Also, the “direct antibacterial activity against Erwinia carotovora (in words)” value in test [2] (setting [4]) and in test [3] (setting [4]) was “exerted a direct antibacterial activity” throughout.
